Source: article PMC9774391 (ACS Omega, 2022)

Tests used:
AChE = AChE (Homo sapiens, UniProt P22303); assay: biochemical; conditions: for inhibition at 1000 µM: 10^–3 M; for inhibition at 100 µM: 10^–4 M; for inhibition at 10 µM: 10^–5 M; for inhibition at 1 µM: 10^–6 M; for inhibition at 0.1 µM: 10^–7 M; for inhibition at 0.01 µM: 10^–8 M; for inhibition at 0.001 µM: 10^–9 M
Procedure: (§1) According to the modified Ellman approach outlined in our team’s earlier work, the AChE and BChE inhibitory activities of the obtained compounds were evaluated.[18]−[21]

BChE = BChE (Homo sapiens, UniProt P06276); assay: biochemical; conditions: for inhibition at 1000 µM: 10^–3 M; for inhibition at 100 µM: 10^–4 M
Procedure: as §1

MAO-A = target: T1, MAO-A (Homo sapiens, UniProt P21397); assay: In vitro MAO-A inhibition assay (fluorometric); type: biochemical; conditions: for inhibition at 1000 µM: 10^–3 M; for inhibition at 100 µM: 10^–4 M
T1 sequence (P21397 1-527): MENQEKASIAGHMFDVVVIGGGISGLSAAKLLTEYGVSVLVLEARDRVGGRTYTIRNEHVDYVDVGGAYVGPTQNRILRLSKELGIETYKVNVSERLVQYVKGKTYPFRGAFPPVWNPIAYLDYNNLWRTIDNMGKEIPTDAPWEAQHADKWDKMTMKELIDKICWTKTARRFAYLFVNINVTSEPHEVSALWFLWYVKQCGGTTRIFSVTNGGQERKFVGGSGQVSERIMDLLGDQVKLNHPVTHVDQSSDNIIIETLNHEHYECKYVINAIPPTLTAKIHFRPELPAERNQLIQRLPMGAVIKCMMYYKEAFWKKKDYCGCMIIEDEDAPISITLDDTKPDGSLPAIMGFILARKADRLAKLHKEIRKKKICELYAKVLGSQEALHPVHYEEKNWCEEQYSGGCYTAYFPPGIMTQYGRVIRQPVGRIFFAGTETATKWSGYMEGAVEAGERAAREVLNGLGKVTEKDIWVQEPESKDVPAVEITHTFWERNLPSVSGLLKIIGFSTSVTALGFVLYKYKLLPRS

MAO-B = target: T2, MAO-B (Homo sapiens, UniProt P27338); assay: In vitro MAO-B inhibition assay (fluorometric); type: biochemical; conditions: for inhibition at 1000 µM: 10^–3 M; for inhibition at 100 µM: 10^–4 M
T2 sequence (P27338 1-520): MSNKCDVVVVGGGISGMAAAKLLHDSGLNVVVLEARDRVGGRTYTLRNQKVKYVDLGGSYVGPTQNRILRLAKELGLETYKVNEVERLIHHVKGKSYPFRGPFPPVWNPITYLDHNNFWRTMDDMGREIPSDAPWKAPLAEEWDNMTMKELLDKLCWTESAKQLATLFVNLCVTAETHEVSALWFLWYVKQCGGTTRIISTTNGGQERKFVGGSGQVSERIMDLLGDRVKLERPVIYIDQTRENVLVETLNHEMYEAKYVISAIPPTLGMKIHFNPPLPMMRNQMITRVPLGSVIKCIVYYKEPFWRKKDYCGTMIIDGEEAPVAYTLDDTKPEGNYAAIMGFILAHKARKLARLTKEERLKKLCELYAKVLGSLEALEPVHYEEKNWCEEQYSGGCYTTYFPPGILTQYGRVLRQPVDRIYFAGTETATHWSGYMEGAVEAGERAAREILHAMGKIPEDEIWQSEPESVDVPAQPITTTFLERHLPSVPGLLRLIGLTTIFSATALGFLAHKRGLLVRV

Beta Amyloid 1–42 (Aβ42) = target: T3, Beta Amyloid 1–42 (Aβ42) (Homo sapiens, UniProt P05067); assay: Beta Amyloid 1–42 (Aβ42) inhibitor screening assay; type: biochemical; conditions: read-out: % β-amyloid plaque inhibition; for inhibition at 100 µM: 10^–4 M
T3 construct: The Beta Amyloid 1–42 (Aβ42) Ligand Screening Assay kit; purchased BioVision, Milpitas, CA
From the text: The Beta Amyloid 1–42 (Aβ42) Ligand Screening Assay kit (BioVision, Milpitas, CA) technique based on the fluorometric approach served as the basis for the experimental process.[21],[28],[29]

Cytotoxicity test (MTT) = type: cell-based; conditions: NIH/3T3 mouse embryonic fibroblast cells (ATCC CRL-1658), NIH/3T3 mouse fibroblast healthy cell line
Procedure: The NIH/3T3 cells were incubated according to the manufacturer’s recommendations. In 96-well plates, NIH/3T3 cells were seeded at a density of 1 × 10^4 cells per well. The MTT test was conducted in line with the previously mentioned standards.[19],[22],[23],[28],[30]

[1] = DPPH free-radical scavenging activity assay; conditions: for IC50: serial dilution 10^–3–10^–9 M, read-out: IC50 on DPPH antioxidant activity
Procedure: This approach is based on evaluating the free-radical scavenging abilities of the stable 1,1-diphenyl-2-picrylhydrazyl (DPPH) radical. To create the DPHH solution, 9.86 mg of DPPH was weighed and diluted to 25 mL with methanol. The test wells were then filled with 100 μL of the DPPH solution and 100 μL of the test solutions. Only 200 μL of methanol was used for the blank reading, while the control reading required the usage of 100 μL each of methanol and the DPPH solution. Following incubation, a spectrophotometric measurement at 517 nm was carried out.[26],[27]

AChE, sequence (P22303 32-614): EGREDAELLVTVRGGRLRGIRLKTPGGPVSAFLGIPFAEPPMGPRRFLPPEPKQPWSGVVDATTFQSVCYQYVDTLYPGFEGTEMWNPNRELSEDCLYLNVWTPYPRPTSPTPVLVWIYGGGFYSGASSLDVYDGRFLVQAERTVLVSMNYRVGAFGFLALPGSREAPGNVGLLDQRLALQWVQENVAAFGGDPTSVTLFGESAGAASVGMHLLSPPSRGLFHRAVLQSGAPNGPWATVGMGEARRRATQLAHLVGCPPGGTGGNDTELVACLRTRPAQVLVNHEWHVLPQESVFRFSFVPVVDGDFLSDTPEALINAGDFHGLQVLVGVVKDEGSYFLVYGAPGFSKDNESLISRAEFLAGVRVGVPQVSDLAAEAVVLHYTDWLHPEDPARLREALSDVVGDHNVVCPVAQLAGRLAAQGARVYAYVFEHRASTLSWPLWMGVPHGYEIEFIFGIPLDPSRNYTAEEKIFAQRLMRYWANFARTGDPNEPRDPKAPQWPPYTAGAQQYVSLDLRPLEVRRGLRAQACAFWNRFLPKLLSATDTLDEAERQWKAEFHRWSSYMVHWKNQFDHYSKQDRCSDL
T3 sequence (P05067 672-713 limits assumed): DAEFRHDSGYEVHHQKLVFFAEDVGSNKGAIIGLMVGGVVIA
BChE, sequence (P06276 29-602): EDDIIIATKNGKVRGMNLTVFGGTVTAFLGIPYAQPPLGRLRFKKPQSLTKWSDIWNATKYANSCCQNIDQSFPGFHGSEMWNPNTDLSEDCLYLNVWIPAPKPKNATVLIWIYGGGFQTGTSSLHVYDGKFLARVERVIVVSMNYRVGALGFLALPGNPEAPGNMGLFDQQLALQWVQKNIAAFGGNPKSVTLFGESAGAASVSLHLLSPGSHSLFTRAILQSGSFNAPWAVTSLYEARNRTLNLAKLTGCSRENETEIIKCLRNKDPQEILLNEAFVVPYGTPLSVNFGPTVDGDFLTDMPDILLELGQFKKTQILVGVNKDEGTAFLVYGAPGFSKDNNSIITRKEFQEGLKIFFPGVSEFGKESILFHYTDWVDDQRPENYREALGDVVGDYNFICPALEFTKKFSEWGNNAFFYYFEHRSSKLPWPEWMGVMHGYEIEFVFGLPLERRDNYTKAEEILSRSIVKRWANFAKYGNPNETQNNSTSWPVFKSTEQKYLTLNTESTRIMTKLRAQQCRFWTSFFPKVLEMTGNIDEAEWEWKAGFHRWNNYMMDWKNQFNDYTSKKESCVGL

Compound	IC50 (AChE) [nM]	inhibition at 1000 µM (AChE) [%]	inhibition at 100 µM (AChE) [%]	inhibition at 10 µM (AChE) [%]	inhibition at 1 µM (AChE) [%]	inhibition at 0.1 µM (AChE) [%]	inhibition at 0.01 µM (AChE) [%]	inhibition at 0.001 µM (AChE) [%]	inhibition at 1000 µM (BChE) [%]	inhibition at 100 µM (BChE) [%]	inhibition at 1000 µM (MAO-A) [%]	inhibition at 100 µM (MAO-A) [%]	inhibition at 1000 µM (MAO-B) [%]	inhibition at 100 µM (MAO-B) [%]	inhibition at 100 µM (Beta Amyloid 1–42 (Aβ42)) [%]	IC50 (Cytotoxicity test (MTT)) [nM]	IC50 [1] [nM]	other results
COc1cc2c(cc1OC)C(=O)/C(=C/c1ccc(NC(=O)CN3CCN(CCCO)CC3)cc1)C2 [D21]	29.2 ± 0.8	95.7 ± 1.2	91.7 ± 1.47	87.3 ± 1.3	81.8 ± 1.1	70.6 ± 1	38.3 ± 0.678	19.3 ± 0.593	99.7 ± 2.82	40.6 ± 0.978	91.2 ± 1.21	26.9 ± 0.541	93.5 ± 1.38	46.2 ± 0.587	> 50	39500 ± 1820		
COc1cc2c(cc1OC)C(=O)/C(=C/c1ccc(NC(=O)CN(C)CCN(C)C)cc1)C2 [D36]	235 ± 11.3	91.9 ± 1.47	86.6 ± 1.57	78.6 ± 1.03	58.8 ± 0.893	38.2 ± 0.539	33.1 ± 0.491	20.6 ± 0.374	100 ± 1.25	41 ± 0.608	82.4 ± 0.873	43 ± 0.771	84.6 ± 1.01	45.2 ± 0.584		3620 ± 129	251 ± 10	
COc1ccc2c(c1)C(=O)/C(=C/c1ccc(NC(=O)CN3CCN(CCCO)CC3)cc1)C2 [D20]	31.1 ± 1.1	98.3 ± 1.11	91.1 ± 1.36	86.3 ± 1.25	77.2 ± 0.975	68.26 ± 0.633	40.2 ± 0.528	21.1 ± 0.429	82.6 ± 1.05	20.1 ± 0.277	81.86 ± 0.243	43.29 ± 0.429	83.6 ± 1.04	41.6 ± 0.508	> 50	20000 ± 1000		
COc1ccc2c(c1)C/C(=C\c1ccc(NC(=O)CN3CCN(CCN(C)C)CC3)cc1)C2=O [D22]	52.7 ± 1.6	91.9 ± 1.47	86.6 ± 1.57	79 ± 1.17	70.4 ± 1.07	63.4 ± 0.988	43 ± 0.633	18.8 ± 0.521	99.5 ± 1.23	39.5 ± 0.97	76.9 ± 0.232	37.5 ± 0.411	85.3 ± 0.957	48.6 ± 0.605	> 50	32500 ± 523		
O=C(O)CC(O)(CC(=O)O)C(=O)O [citric acid, reference compound]																	194 ± 9	% DPPH free-radical scavenging (antioxidant) activity ([1]; 10^–3 M): 99.48% ± 1.45; % DPPH free-radical scavenging (antioxidant) activity ([1]; 10^–4 M): 94.26% ± 1.37
COc1ccc2c(c1)C/C(=C\c1ccc(NC(=O)CN3CCN(CCCO)CC3)cc1)C2=O [D19]	32.4 ± 1.2	95.2 ± 1.65	92.7 ± 1.25	89.2 ± 1.08	82.1 ± 0.988	70.7 ± 1.07	33.6 ± 0.624	20.6 ± 0.596	83.5 ± 1.37	32.5 ± 0.337	60.9 ± 1.86	25.3 ± 0.632	90.2 ± 1.46	43.2 ± 0.877		10500 ± 517	362 ± 15	% DPPH free-radical scavenging activity ([1]; concentration not stated in the sentence (Figure 6)): ≥ 90%
COc1cc(/C=C/C(=O)CC(=O)/C=C/c2ccc(O)c(OC)c2)ccc1O [curcumin, reference compound]															88.2 ± 2.17			inhibition at 1000 µM (Beta Amyloid 1–42 (Aβ42); 10^–3 M): 95.9 ± 1.97%
